The values that follow come from ChEMBL document CHEMBL4507303, “Data for DCP probe TP-004” (2021).

By IC50 is commonly meant the midpoint of a concentration-inhibition curve. Read a low IC50 as greater potency in that assay.

Structures are written as SMILES.

This assay addresses Endothelin-1 receptor (Homo sapiens, UniProt P25101). Briefly: Inhibition of [125I]-endothelin-1 binding to EDNRA.

Endothelin-1 receptor, sequence (P25101 whole entry): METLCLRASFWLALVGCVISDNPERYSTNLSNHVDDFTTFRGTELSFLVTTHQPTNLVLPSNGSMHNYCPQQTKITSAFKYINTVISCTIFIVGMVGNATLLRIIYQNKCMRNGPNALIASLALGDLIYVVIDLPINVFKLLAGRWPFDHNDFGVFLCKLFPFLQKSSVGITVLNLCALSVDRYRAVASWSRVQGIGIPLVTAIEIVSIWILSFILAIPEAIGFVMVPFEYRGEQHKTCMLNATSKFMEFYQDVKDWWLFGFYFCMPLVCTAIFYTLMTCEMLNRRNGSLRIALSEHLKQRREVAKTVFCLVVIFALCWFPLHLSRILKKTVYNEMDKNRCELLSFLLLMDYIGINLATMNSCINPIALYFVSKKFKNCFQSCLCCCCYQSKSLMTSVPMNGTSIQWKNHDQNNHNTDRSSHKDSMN

With `FC(F)(F)c1cc(-c2ccccc2)c2nncn2c1` [TPn-004], the IC50 is > 10 µM (not active).
